Test results: patent publication US8618153B2, “Hepatitis C virus inhibitors” (Bristol-Myers Squibb Company, priority 2009, dated 2013)

The compounds below were run on HCV 1b genotype (assay: HCV Replicon assay (HCV-neo replicon cells), 1b genotype). Settings: Hepatitis C virus; HCV 1b genotype replicon; numeric value; read-out: 1b EC50 (in μM or range).
Type: cell-based
Procedure: An HCV Replicon assay was utilized in the present disclosure, and was prepared, conducted and validated as described in commonly owned PCT/US2006/022197 and in O'Boyle et al., Antimicrob. Agents Chemother., 49(4):1346-1353 (April 2005). Assay methods incorporating luciferase reporters have also been used as described (Apath.com).
HCV-neo replicon cells and replicon cells containing mutations in the NS5A region were used to test the currently described family of compounds. The compounds were determined to have more than 10-fold less inhibitory activity on cells containing mutations than wild-type cells. Thus, the compounds of the present disclosure can be effective in inhibiting the function of the HCV NS5A protein and are understood to be as effective in combinations as previously described in application PCT/US2006/022197 and commonly owned WO 04/014852. Further, the compounds of the present disclosure can be effective against the HCV 1b genotype. It should also be understood that the compounds of the present disclosure can inhibit multiple genotypes of HCV. […] In one embodiment compounds of the present disclosure are inhibitory versus 1a, 1b, 2a, 2b, 3a, 4a, and 5a genotypes. […] The compounds of the present disclosure may inhibit HCV by mechanisms in addition to or other than NS5A inhibition. In one embodiment the compounds of the present disclosure inhibit HCV replicon and in another embodiment the compounds of the present disclosure inhibit NS5A.
With CCN(CC)[C@@H](C(=O)N1CCC[C@H]1c1nc(/C=C/c2ccc(/C=C/c3cnc([C@@H]4CCCN4C(=O)[C@@H](c4ccccc4)N(CC)CC)[nH]3)cc2)c[nH]1)c1ccccc1 [Example 35, (1R)-2-((2S)-2-(4-((E)-2-(4-((E)-2-(2-((2S)-1-((2R)-2-(diethylamino)-2-phenylacetyl)-2-pyrrolidinyl)-1H-imidazol-5-yl)vinyl)phenyl)vinyl)-1H-imidazol-2-yl)-1-pyrrolidinyl)-N,N-diethyl-2-oxo-1-phenylethanamine] the EC50 was 0.00014 µM. In the case of COC(=O)N[C@@H](C)C(=O)N1CCC[C@H]1c1nc(CCc2ccc(CCc3cnc([C@@H]4CCCN4C(=O)[C@H](C)NC(=O)OC)[nH]3)cc2)c[nH]1 [Example 42, methyl ((1S)-2-((2S)-2-(4-(2-(4-(2-(2-((2S)-1-(N-(methoxycarbonyl)-L-alanyl)-2-pyrrolidinyl)-1H-imidazol-4-yl)ethyl)phenyl)ethyl)-1H-imidazol-2-yl)-1-pyrrolidinyl)-1-methyl-2-oxoethyl)carbamate], the EC50 is reported as 0.274 µM.

Same assay, conditions: Hepatitis C virus; HCV 1b genotype replicon; value given as range class; read-out: 1b EC50 (in μM or range)
O=C([C@@H](c1ccccc1)N1CCCCC1)N1CCC[C@H]1c1ncc(C#CC#Cc2cnc([C@@H]3CCCN3C(=O)[C@@H](c3ccccc3)N3CCCCC3)[nH]2)[nH]1 [Example 30, (2R,2′R)-1,1′-((2S,2′S)-2,2′-(5,5′-(Buta-1,3-diyne-1,4-diyl)bis(1H-imidazole-5,2-diyl))bis(pyrrolidine-2,1-diyl))bis(2-phenyl-2-(piperidin-1-yl)ethanone)] showed an EC50 of under 0.001 µM. Compound COC(=O)N[C@H](C(=O)N1CCC[C@H]1c1ncc(C#CC#Cc2cnc([C@@H]3CCCN3C(=O)[C@@H](NC(=O)OC)C(C)C)[nH]2)[nH]1)C(C)C [Example 31, Dimethyl (2S,2′S)-1,1′-((2S,2′S)-2,2′-(5,5′-(buta-1,3-diyne-1,4-diyl)bis(1H-imidazole-5,2-diyl))bis(pyrrolidine-2,1-diyl))bis(3-methyl-1-oxobutane-2,1-diyl)dicarbamate] has an EC50 of under 0.001 µM. Work on COC(=O)N[C@@H](C)C(=O)N1CCC[C@H]1c1ncc(C#CC#Cc2cnc([C@@H]3CCCN3C(=O)[C@H](C)NC(=O)OC)[nH]2)[nH]1 [Example 32, Dimethyl (2S,2′S)-1,1′-((2S,2′S)-2,2′-(5,5′-(buta-1,3-diyne-1,4-diyl)bis(1H-imidazole-5,2-diyl))bis(pyrrolidine-2,1-diyl))bis(1-oxopropane-2,1-diyl)dicarbamate] yielded an EC50 of 0.01 to 10 µM. Compound COC(=O)N[C@H](C(=O)N1CCC[C@H]1c1ncc(C#Cc2ccc(-c3ccc(-c4cnc([C@@H]5CCCN5C(=O)[C@@H](NC(=O)OC)C(C)C)[nH]4)cc3)cc2)[nH]1)C(C)C [Example 33, Methyl ((1S)-1-(((2S)-2-(4-(4′-((2-((2S)-1-((2S)-2-((methoxycarbonyl)amino)-3-methylbutanoyl)-2-pyrrolidinyl)-1H-imidazol-4-yl)ethynyl)-4-biphenylyl)-1H-imidazol-2-yl)-1-pyrrolidinyl)carbonyl)-2-methylpropyl)carbamate] has an EC50 of under 0.001 µM. With COC(=O)N[C@H](C(=O)N1[C@@H]2C[C@@H]2C[C@H]1c1ncc(C#CC#Cc2cnc([C@@H]3C[C@H]4C[C@H]4N3C(=O)[C@@H](NC(=O)OC)C3CCOCC3)[nH]2)[nH]1)C1CCOCC1 [Example 34, Dimethyl (1,3-butadiyne-1,4-diylbis(1H-imidazole-4,2-diyl(1R,3S,5R)-2-azabicyclo[3.1.0]hexane-3,2-diyl((1S)-2-oxo-1-(tetrahydro-2H-pyran-4-yl)-2,1-ethanediyl)))biscarbamate] the EC50 was 0.001 to 0.01 µM. COC(=O)N[C@@H](C(=O)N1CCC[C@H]1c1nc(/C=C/c2ccc(/C=C/c3cnc([C@@H]4CCCN4C(=O)[C@H](NC(=O)OC)c4ccccc4)[nH]3)cc2)c[nH]1)c1ccccc1 [Example 36, dimethyl (1,4-phenylenebis((E)-2,1-ethenediyl-1H-imidazole-4,2-diyl(2S)-2,1-pyrrolidinediyl((1R)-2-oxo-1-phenyl-2,1-ethanediyl)))biscarbamate] was tested, and the EC50 was under 0.001 µM. COC(=O)N[C@@H](C)C(=O)N1CCC[C@H]1c1nc(/C=C/c2ccc(/C=C/c3cnc([C@@H]4CCCN4C(=O)[C@H](C)NC(=O)OC)[nH]3)cc2)c[nH]1 [Example 37, methyl ((1S)-2-((2S)-2-(4-((E)-2-(4-((E)-2-(2-((2S)-1-(N-(methoxycarbonyl)-L-alanyl)-2-pyrrolidinyl)-1H-imidazol-4-yl)vinyl)phenyl)vinyl)-1H-imidazol-2-yl)-1-pyrrolidinyl)-1-methyl-2-oxoethyl)carbamate] was tested, and the EC50 was under 0.001 µM. COC(=O)N[C@H](C(=O)N1CCC[C@H]1c1nc(/C=C/c2ccc(/C=C/c3cnc([C@@H]4CCCN4C(=O)[C@@H](NC(=O)OC)C(C)C)[nH]3)cc2)c[nH]1)C(C)C [Example 38, methyl ((1S)-1-(((2S)-2-(4-((E)-2-(4-((E)-2-(2-((2S)-1-((2S)-2-((methoxycarbonyl)amino)-3-methylbutanoyl)-2-pyrrolidinyl)-1H-imidazol-4-yl)vinyl)phenyl)vinyl)-1H-imidazol-2-yl)-1-pyrrolidinyl)carbonyl)-2-methylpropyl)carbamate] showed an EC50 of under 0.001 µM. In the case of COC(=O)N[C@H](C(=O)N1CCC[C@H]1c1nc(/C=C/c2ccc(/C=C/c3cnc([C@@H]4CCCN4C(=O)[C@@H](NC(=O)OC)[C@@H](C)OC)[nH]3)cc2)c[nH]1)[C@@H](C)OC [Example 39, methyl ((1S,2R)-2-methoxy-1-(((2S)-2-(4-((E)-2-(4-((E)-2-(2-((2S)-1-(N-(methoxycarbonyl)-O-methyl-L-threonyl)-2-pyrrolidinyl)-1H-imidazol-4-yl)vinyl)phenyl)vinyl)-1H-imidazol-2-yl)-1-pyrrolidinyl)carbonyl)propyl)carbamate], the EC50 is reported as under 0.001 µM. In the case of CCN(CC)[C@@H](C(=O)N1CCC[C@H]1c1nc(CCc2ccc(CCc3cnc([C@@H]4CCCN4C(=O)[C@@H](c4ccccc4)N(CC)CC)[nH]3)cc2)c[nH]1)c1ccccc1 [Example 40, (1R)-2-((2S)-2-(4-(2-(4-(2-(2-((2S)-1-((2R)-2-(diethylamino)-2-phenylacetyl)-2-pyrrolidinyl)-1H-imidazol-5-yl)ethyl)phenyl)ethyl)-1H-imidazol-2-yl)-1-pyrrolidinyl)-N,N-diethyl-2-oxo-1-phenylethanamine], the EC50 is reported as under 0.001 µM. COC(=O)N[C@@H](C(=O)N1CCC[C@H]1c1nc(CCc2ccc(CCc3cnc([C@@H]4CCCN4C(=O)[C@H](NC(=O)OC)c4ccccc4)[nH]3)cc2)c[nH]1)c1ccccc1 [Example 41, dimethyl (1,4-phenylenebis(2,1-ethanediyl-1H-imidazole-4,2-diyl(2S)-2,1-pyrrolidinediyl((1R)-2-oxo-1-phenyl-2,1-ethanediyl)))biscarbamate] showed an EC50 of under 0.001 µM. COC(=O)N[C@H](C(=O)N1CCC[C@H]1c1nc(CCc2ccc(CCc3cnc([C@@H]4CCCN4C(=O)[C@@H](NC(=O)OC)C(C)C)[nH]3)cc2)c[nH]1)C(C)C [Example 43, methyl ((1S)-1-(((2S)-2-(4-(2-(4-(2-(2-((2S)-1-((2S)-2-((methoxycarbonyl)amino)-3-methylbutanoyl)-2-pyrrolidinyl)-1H-imidazol-4-yl)ethyl)phenyl)ethyl)-1H-imidazol-2-yl)-1-pyrrolidinyl)carbonyl)-2-methylpropyl)carbamate] gave an EC50 of 0.001 to 0.01 µM.
